The assay has as its target T1, ADRA1B (Homo sapiens, UniProt P35368).
T1 construct: purchased Promega (in-house HiBiT-GPCR construct library, NanoBRET)
T1 sequence (P35368 1-520): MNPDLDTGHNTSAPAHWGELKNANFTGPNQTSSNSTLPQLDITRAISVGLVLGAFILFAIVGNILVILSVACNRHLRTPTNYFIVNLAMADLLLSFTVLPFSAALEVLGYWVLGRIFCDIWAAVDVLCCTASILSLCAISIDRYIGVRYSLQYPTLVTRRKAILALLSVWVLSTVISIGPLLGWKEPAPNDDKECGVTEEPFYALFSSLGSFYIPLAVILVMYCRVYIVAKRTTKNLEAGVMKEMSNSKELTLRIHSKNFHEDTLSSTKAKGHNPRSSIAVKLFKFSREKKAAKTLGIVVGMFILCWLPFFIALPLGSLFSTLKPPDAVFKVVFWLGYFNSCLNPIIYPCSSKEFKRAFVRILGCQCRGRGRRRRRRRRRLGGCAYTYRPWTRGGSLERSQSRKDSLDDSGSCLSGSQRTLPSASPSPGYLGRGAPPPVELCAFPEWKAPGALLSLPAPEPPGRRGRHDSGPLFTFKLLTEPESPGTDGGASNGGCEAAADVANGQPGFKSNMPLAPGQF
Description: NanoBRET screen HiBiT-ADRA1B in HEK293. It counts as binding. The procedure:
Each tracer candidate was screened across the entire library of HiBiT-GPCR constructs using NanoBRET as the detection modality. As depicted in Figure 4A, the specificity of interactions was evaluated through decrease in BRET due to competitive displacement of a bound tracer by excess parental compound. Each tracer was analyzed for binding to each HiBiT-GPCR fusion in the absence and in the presence of competing parental compound. Briefly, HEK293 cells were transfected with HiBiT-GPCR constructs diluted into promoterless DNA to reduce expression and maximize translocation to the cell surface. Each tracer candidate was then screened at concentrations of 1 μM and 0.1 μM across cells expressing these fusions. Cells were treated for 1.5 h with tracer either alone or in the presence of 20 μM competing parental compound (i.e., control). BRET was measured upon addition of purified LgBiT and subsequent complementation with HiBiT genetically fused to a GPCR. The specificity of interactions was assessed through a decrease in BRET signal due to competitive displacement of the bound tracer. To further gauge the robustness of these interactions, the fold response over the control (i.e., BRETtracer/BRETcontrol) was calculated. We chose a 1.5-fold response, which translates to ≥7-fold signal over noise as the minimal threshold required to score an interaction as positive.
HiBiT-GPCR DNA constructs were diluted in 10 mM Tris pH 8 to a final concentration of 0.01 μg/μL, arrayed in 96-well plates and stored at −20 °C. For transfection, HEK293 cells were suspended in Opti-MEM (without phenol red) supplemented with 2% fetal bovine serum (Seradigm) and 100 units/mL penicillin–streptomycin (Gibco) at a final concentration of 220,000 cells/mL and dispensed into white 96-well plates at 90 μL/well. Subsequent transfections and screens were carried using an Agilent Bravo Automated Liquid Handling Platform. First, the 96-well HiBiT DNA arrays were diluted 25-fold in Opti-MEM (without serum or phenol red) to a final concentration of 0.0004 μg/μL and 20 μL of the diluted DNAs were transferred into new 96-well plates. Next, promoterless carrier DNA (1 μg/μL) was diluted 25-fold (0.04 μg/μL) and then dispensed into the diluted arrays at 20 μL/well. Following brief mixing, Viafect transfection reagent (Promega) diluted 16-fold into Opti-MEM was dispensed into the plates at 40 μL/well. After mixing by pipetting, plates were incubated for 10 min on the pipetting station deck. The DNA-transfection reagent complexes were then added to plates containing cells. To facilitate the screen, 10 μL of DNA-transfection reagent complexes were added in duplicates to the top 4 and bottom 4 rows, resulting in two identical 48-well arrays per plate. Plates with transfected cells were incubated for 18–20 h at 37 °C/5% CO2. A screen of each tracer across the entire library using two different concentrations requires duplicate plates of transfected cells. Depending on the number of tracers being screened, transfections can be scaled up using the same ratios. The next day, for each tracer, four 20× screening solutions in tracer dilution buffer (Promega) were prepared: two duplicates at final concentration of 20 μM and two duplicates at a final concentration of 2 μM. […] The four resulting solutions were diluted 4-fold in Opti-MEM without serum or phenol red to generate 5× solutions (5 µM and 0.5 µM tracer +/− 100 μM competing compound). To screen the library, a BioTek MultiFlo FX liquid dispenser was used to dispense 22.5 µL of tracer solution to the top 4 rows and 22.5 µL tracer + competing compound solution to the 4 bottom rows. Plates were briefly mixed on an orbital shaker and incubated for 1.5 h at room temperature. […] Plates were briefly mixed on an orbital shaker and incubated for 15 min to allow complementation.

On to `COc1ccc2c(n1)c(CCNC(C)=O)cn2CCNC(=O)CCc1ccc2n1[B-](F)(F)[N+]1=C(c3ccc[nH]3)C=CC1=C2` [Azamelatonin-1-NB590], for which the “NanoBRET Fold Response” value worked out at 0.97 (0.1μM tracer) and 0.88 (1μM tracer).
`CC(C)N(CC[C@H](c1ccccc1)c1cc(CCNC(=O)c2ccc(CNC(=O)CCc3ccc4n3[B-](F)(F)[N+]3=C(c5ccc[nH]5)C=CC3=C4)cc2)ccc1O)C(C)C` [Tolterodine-BZ-NB590]: the “NanoBRET Fold Response” value (ADRA1B, tracer 0.1μM) came to 1.17 and the “NanoBRET Fold Response” value (ADRA1B, tracer 1μM) is listed as 1.05.
For `O=C(CCc1ccc2n1[B-](F)(F)[N+]1=C(c3ccc[nH]3)C=CC1=C2)NCCOCCOCCNC(=O)OCCOCCN1CCN(C2=Nc3ccccc3Sc3ccccc32)CC1` [Quetiapine-a-2-NB590], the “NanoBRET Fold Response” value reads like this: (ADRA1B, tracer 0.1μM) 1.52; (ADRA1B, tracer 1μM) 1.59.
On to `Cc1cc2c(s1)Nc1ccccc1N=C2N1CCN(CCCNC(=O)CCOCCOCCOCCOCCNC(=O)CCc2ccc3n2[B-](F)(F)[N+]2=C(c4ccc[nH]4)C=CC2=C3)CC1` [Olanzapine-a-2-NB590], for which the “NanoBRET Fold Response” value is, setting by setting: (ADRA1B, tracer 0.1μM) 1.26; (ADRA1B, tracer 1μM) 1.98.
Regarding `O=C(CCc1ccc2n1[B-](F)(F)[N+]1=C(c3ccc[nH]3)C=CC1=C2)NCc1ccc(C(=O)NCCOCCOCCNCC(O)COc2cccc3ccccc23)cc1` (stereo not shown) [Propranolol-3-NB590], the “NanoBRET Fold Response” value is, setting by setting: (ADRA1B, 0.1μM) 1.14; (ADRA1B, 1μM) 1.10.
In the case of `N#CN/C(=N\CCNC(=O)c1ccc(N)cc1)NCCCOc1cccc(CN2CCCCC2)c1` [Aminopotentidine (unmodified)], the “NanoBRET Fold Response” value runs as follows: (ADRA1B, other tracers/Aminopotentidine (unmodified), 0.1μM) 1.03; (ADRA1B, other tracers/Aminopotentidine (unmodified), 1μM) 0.99.
Turning to `O=C(CCc1ccc2n1[B-](F)(F)[N+]1=C(c3ccc[nH]3)C=CC1=C2)NCc1ccc(C(=O)NCCOCCC(=O)N[C@@H]2CC[C@@]3(O)[C@H]4Cc5ccc(O)c6c5[C@@]3(CCN4CC3CC3)[C@H]2O6)cc1` [Naltrexone-3-NB590], the “NanoBRET Fold Response” value is, setting by setting: (ADRA1B, tracer 0.1μM) 0.53; (ADRA1B, tracer 1μM) 0.79.
As for `CC(C)N(CC[C@H](c1ccccc1)c1cc(CCNC(=O)CCOCCOCCOCCOCCNC(=O)CCc2ccc3n2[B-](F)(F)[N+]2=C(c4ccc[nH]4)C=CC2=C3)ccc1O)C(C)C` [Tolterodine-2-NB590], the “NanoBRET Fold Response” value is, setting by setting: (ADRA1B, tracer 0.1μM) 1.16; (ADRA1B, tracer 1μM) 1.06.
For the molecule `O=C(CCOCCOCCOCCOCCNC(=O)CCc1ccc2n1[B-](F)(F)[N+]1=C(c3ccc[nH]3)C=CC1=C2)NCCCN1CCN(C2=Nc3cc(Cl)ccc3Nc3ccccc32)CC1` [Clozapine-a-2-NB590], the “NanoBRET Fold Response” value (ADRA1B, 0.1μM tracer) turned out to be 1.65 and the “NanoBRET Fold Response” value (ADRA1B, 1μM tracer) came to 1.52.
As for `COc1ccc2[nH]c(-c3ccc(CNC(=O)CCOCCOCCOCCOCCNC(=O)CCc4ccc5n4[B-](F)(F)[N+]4=C(c6ccc[nH]6)C=CC4=C5)cc3)c(CCNC(C)=O)c2n1` [AzomelatoninICO9-2-NB590], the “NanoBRET Fold Response” value (0.1μM tracer) is given as 0.91 and the “NanoBRET Fold Response” value (1μM tracer) is reported as 0.97.
Consider `COc1ccccc1N1CCN(CCCCN2C(=O)c3ccc(CNC(=O)CCOCCNC(=O)c4ccc(CNC(=O)CCc5ccc6n5[B-](F)(F)[N+]5=C(c7ccc[nH]7)C=CC5=C6)cc4)cc3C2=O)CC1` [NAN-190-3-NB590], for which the “NanoBRET Fold Response” value runs as follows: (ADRA1B, tracer 0.1μM) 1.70; (ADRA1B, tracer 1μM) 1.72.
As to `N#CN=C(NCCCOc1cccc(CN2CCCCC2)c1)NCCNC(=O)CCOCCOCCOCCOCCNC(=O)CCc1ccc2n1[B-](F)(F)[N+]1=C(c3ccc[nH]3)C=CC1=C2` [Aminopotentidine-2-NB590], the “NanoBRET Fold Response” value runs as follows: (ADRA1B, tracer 0.1μM) 1.10; (ADRA1B, tracer 1μM) 1.01.
`CN(C)CCC=C1c2ccccc2CCc2ccc(C(=O)NCCNC(=O)CCOCCOCCOCCOCCNC(=O)CCc3ccc4n3[B-](F)(F)[N+]3=C(c5ccc[nH]5)C=CC3=C4)cc21` [Amitriptyline-b-2-NB590]: the “NanoBRET Fold Response” value reads like this: (tracer at 0.1μM, listed as amitriptyline-b-2-NB590) 1.73; (tracer at 1μM, listed as amitriptyline-b-2-NB590) 1.67.
On to `COc1ccccc1N1CCN(CCCCN2C(=O)c3ccc(CNC(=O)CCOCCOCCOCCOCCNC(=O)CCc4ccc5n4[B-](F)(F)[N+]4=C(c6ccc[nH]6)C=CC4=C5)cc3C2=O)CC1` [NAN-190-2-NB590], for which the “NanoBRET Fold Response” value runs as follows: (ADRA1B, tracer 0.1μM) 1.80; (ADRA1B, tracer 1μM) 1.59.
Turning to `O=C(CCOCCOCCOCCOCCNC(=O)CCc1ccc2n1[B-](F)(F)[N+]1=C(c3ccc[nH]3)C=CC1=C2)NCCCN1CCN(C2=Nc3ccccc3Oc3ccc(Cl)cc32)CC1` [Loxapine-a-2-NB590], the “NanoBRET Fold Response” value (ADRA1B, tracer 0.1μM) is 1.78 and the “NanoBRET Fold Response” value (ADRA1B, tracer 1μM) stood at 1.54.
Turning to `CN(CCC=C1c2ccccc2CCc2ccccc21)C(=O)CCOCCOCCOCCOCCNC(=O)CCc1ccc2n1[B-](F)(F)[N+]1=C(c3ccc[nH]3)C=CC1=C2` [Amitriptyline-e-2-NB590], the “NanoBRET Fold Response” value (tracer at 1μM) amounted to 1.04.
Regarding `CCCn1c(=O)c2[nH]c(-c3ccc(OCC(=O)NCCNC(=O)CCOCCNC(=O)c4ccc(CNC(=O)CCc5ccc6n5[B-](F)(F)[N+]5=C(c7ccc[nH]7)C=CC5=C6)cc4)cc3)nc2n(CCC)c1=O` [XAC-3-NB590], the “NanoBRET Fold Response” value is, setting by setting: (ADRA1B, tracer 0.1μM) 1.05; (ADRA1B, tracer 1μM) 1.17.
In the case of `CN(C)CCC=C1c2ccccc2CCc2ccc(C(=O)NCCNC(=O)CCOCCOCCOCCOCCNC(=O)CCc3ccc4n3[B-](F)(F)[N+]3=C(c5ccc[nH]5)C=CC3=C4)cc21` [Amitriptyline-a-2-NB590], the “NanoBRET Fold Response” value was 1.19 (tracer at 0.1μM) and 1.46 (tracer at 1μM).
Regarding `CCOC(=O)c1cc(C#N)c(N2CCC(C(=O)NS(=O)(=O)Cc3ccccc3/C=C/C(=O)NCCNC(=O)CCc3ccc4n3[B-](F)(F)[N+]3=C(c5ccc[nH]5)C=CC3=C4)CC2)nc1C` [AZD1283-1-NB590], the “NanoBRET Fold Response” value stood at 1.08 (ADRA1B, 0.1μM) and 1.06 (ADRA1B, 1μM).

The values are drawn from article PMC8151276, “An Integrated Approach toward NanoBRET Tracers for Analysis of GPCR Ligand Engagement” (Molecules, 2021).
